{"source": "paper doi:10.1101/534982v1", "about": "(biorxiv, 2019)", "test_in_all_cases": "fluorescence reverse titration", "key": {"α-tetramerization domain": {"biological_target": "T1, α-tetramerization domain (Homo sapiens, UniProt P02549)", "T1 sequence (P02549 1-158)": "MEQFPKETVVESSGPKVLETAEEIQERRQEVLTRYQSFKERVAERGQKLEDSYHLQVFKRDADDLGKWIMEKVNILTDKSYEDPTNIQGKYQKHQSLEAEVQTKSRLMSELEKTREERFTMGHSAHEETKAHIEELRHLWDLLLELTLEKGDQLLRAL", "assay_type": "binding"}, "SH3 domain": {"biological_target": "T2, SH3 domain (Homo sapiens, UniProt P02549)", "T2 sequence (P02549 973-1055)": "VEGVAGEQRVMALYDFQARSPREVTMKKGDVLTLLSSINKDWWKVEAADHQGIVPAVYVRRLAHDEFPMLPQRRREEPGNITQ", "assay_type": "binding"}, "β-tetramerization domain": {"biological_target": "T3, β-tetramerization domain (Homo sapiens, UniProt P11277)", "T3 sequence (P11277 1895-2137)": "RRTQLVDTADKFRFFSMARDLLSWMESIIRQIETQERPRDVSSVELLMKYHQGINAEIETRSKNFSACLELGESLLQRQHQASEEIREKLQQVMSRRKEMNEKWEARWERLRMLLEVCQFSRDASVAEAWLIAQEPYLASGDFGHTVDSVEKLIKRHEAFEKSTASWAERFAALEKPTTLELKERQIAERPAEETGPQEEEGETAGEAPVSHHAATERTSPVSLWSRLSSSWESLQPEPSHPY", "assay_type": "binding"}, "α-dimerization domain": {"biological_target": "T4, α-dimerization domain (Homo sapiens, UniProt P02549)", "T4 sequence (P02549 2002-2233)": "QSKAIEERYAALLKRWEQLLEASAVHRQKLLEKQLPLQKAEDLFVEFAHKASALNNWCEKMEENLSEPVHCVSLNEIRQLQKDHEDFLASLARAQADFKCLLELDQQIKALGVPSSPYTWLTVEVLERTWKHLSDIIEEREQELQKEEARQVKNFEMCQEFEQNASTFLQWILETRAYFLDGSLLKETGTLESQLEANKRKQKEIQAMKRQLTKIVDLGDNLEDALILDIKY", "assay_type": "binding"}, "spectrin repeat domain": {"biological_target": "T5, spectrin repeat domain (Homo sapiens, UniProt P02549)", "T5 sequence (P02549 1470-1576)": "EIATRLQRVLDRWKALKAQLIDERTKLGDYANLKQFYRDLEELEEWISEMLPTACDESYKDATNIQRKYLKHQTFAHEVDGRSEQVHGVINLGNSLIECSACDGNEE", "assay_type": "binding"}, "ankyrin binding domain": {"biological_target": "T6, ankyrin binding domain (Homo sapiens, UniProt P11277)", "T6 sequence (P11277 1657-1876)": "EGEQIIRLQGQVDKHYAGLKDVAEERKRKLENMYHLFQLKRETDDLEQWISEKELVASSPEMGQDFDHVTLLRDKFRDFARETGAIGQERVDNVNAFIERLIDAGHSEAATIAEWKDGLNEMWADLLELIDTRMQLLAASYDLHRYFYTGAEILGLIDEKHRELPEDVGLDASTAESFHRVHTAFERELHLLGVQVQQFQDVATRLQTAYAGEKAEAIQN"}, "β-dimerization domain": {"biological_target": "β-dimerization domain (Homo sapiens, UniProt P11277)", "sequence (P11277 271-500)": "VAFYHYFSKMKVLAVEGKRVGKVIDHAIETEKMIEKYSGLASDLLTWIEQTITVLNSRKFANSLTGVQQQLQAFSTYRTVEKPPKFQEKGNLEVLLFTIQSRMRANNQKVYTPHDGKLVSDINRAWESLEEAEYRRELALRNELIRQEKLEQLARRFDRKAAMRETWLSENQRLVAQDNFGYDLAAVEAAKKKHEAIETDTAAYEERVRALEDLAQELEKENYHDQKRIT", "assay_type": "binding"}, "[1]": {"biological_target": "Spectrin (dimeric human erythroid spectrin) (Homo sapiens, UniProt P02549+P11277)", "sequence (P02549 whole entry)": "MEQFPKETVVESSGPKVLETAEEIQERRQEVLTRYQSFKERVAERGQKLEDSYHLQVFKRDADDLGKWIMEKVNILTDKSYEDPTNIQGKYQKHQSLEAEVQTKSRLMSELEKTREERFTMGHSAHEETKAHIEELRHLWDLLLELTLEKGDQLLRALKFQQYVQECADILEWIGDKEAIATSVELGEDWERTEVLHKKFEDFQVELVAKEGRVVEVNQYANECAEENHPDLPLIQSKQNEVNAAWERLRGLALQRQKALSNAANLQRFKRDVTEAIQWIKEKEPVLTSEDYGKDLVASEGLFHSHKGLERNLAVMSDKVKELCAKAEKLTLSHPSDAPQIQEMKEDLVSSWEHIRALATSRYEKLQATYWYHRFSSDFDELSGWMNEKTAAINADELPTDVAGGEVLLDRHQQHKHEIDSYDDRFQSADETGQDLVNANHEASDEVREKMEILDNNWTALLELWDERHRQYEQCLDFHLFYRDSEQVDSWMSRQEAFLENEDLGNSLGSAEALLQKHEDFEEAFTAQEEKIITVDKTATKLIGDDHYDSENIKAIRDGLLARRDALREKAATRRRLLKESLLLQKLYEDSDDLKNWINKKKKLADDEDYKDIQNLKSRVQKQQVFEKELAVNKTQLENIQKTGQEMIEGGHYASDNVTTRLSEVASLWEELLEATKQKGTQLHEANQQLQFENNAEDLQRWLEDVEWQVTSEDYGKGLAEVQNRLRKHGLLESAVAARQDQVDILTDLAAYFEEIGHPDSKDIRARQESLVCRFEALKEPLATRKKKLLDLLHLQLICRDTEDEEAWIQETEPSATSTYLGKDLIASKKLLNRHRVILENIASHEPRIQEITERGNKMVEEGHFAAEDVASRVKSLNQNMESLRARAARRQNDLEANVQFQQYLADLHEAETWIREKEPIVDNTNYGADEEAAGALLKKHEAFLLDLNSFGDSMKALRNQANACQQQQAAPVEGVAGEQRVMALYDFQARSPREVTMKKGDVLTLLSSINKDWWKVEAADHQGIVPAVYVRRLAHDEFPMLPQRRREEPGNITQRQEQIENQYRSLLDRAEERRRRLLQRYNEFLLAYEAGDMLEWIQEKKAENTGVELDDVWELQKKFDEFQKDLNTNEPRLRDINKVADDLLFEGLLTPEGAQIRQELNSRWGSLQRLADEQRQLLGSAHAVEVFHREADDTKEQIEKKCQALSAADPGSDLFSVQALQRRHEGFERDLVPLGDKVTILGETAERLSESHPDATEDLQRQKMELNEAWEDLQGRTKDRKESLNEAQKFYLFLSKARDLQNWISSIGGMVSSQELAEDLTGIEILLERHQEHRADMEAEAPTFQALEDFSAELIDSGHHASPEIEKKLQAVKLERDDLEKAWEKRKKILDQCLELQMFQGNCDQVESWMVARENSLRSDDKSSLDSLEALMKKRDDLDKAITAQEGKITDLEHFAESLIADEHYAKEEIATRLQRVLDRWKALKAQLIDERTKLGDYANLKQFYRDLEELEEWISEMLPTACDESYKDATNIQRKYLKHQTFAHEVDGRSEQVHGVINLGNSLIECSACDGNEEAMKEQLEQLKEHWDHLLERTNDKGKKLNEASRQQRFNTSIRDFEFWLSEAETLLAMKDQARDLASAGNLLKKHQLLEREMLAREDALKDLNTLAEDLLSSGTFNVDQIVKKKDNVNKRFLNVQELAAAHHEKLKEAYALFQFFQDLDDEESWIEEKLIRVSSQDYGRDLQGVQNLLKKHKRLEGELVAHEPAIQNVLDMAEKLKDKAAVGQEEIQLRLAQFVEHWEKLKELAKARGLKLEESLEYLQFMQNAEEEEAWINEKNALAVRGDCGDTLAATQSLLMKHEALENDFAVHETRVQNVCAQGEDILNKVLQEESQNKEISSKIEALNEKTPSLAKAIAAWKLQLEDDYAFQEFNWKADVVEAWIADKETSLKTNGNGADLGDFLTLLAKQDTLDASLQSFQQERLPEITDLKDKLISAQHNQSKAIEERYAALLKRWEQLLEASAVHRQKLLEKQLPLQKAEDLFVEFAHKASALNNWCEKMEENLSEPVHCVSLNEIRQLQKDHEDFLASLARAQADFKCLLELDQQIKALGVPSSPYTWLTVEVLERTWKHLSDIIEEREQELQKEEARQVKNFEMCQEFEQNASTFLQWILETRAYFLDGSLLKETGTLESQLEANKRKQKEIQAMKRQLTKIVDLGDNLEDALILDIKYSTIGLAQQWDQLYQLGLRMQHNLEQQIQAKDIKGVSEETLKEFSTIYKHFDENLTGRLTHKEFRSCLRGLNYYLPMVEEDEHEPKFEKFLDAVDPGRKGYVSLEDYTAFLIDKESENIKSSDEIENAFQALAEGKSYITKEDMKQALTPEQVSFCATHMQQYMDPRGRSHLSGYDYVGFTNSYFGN", "sequence (P11277 2-2137)": "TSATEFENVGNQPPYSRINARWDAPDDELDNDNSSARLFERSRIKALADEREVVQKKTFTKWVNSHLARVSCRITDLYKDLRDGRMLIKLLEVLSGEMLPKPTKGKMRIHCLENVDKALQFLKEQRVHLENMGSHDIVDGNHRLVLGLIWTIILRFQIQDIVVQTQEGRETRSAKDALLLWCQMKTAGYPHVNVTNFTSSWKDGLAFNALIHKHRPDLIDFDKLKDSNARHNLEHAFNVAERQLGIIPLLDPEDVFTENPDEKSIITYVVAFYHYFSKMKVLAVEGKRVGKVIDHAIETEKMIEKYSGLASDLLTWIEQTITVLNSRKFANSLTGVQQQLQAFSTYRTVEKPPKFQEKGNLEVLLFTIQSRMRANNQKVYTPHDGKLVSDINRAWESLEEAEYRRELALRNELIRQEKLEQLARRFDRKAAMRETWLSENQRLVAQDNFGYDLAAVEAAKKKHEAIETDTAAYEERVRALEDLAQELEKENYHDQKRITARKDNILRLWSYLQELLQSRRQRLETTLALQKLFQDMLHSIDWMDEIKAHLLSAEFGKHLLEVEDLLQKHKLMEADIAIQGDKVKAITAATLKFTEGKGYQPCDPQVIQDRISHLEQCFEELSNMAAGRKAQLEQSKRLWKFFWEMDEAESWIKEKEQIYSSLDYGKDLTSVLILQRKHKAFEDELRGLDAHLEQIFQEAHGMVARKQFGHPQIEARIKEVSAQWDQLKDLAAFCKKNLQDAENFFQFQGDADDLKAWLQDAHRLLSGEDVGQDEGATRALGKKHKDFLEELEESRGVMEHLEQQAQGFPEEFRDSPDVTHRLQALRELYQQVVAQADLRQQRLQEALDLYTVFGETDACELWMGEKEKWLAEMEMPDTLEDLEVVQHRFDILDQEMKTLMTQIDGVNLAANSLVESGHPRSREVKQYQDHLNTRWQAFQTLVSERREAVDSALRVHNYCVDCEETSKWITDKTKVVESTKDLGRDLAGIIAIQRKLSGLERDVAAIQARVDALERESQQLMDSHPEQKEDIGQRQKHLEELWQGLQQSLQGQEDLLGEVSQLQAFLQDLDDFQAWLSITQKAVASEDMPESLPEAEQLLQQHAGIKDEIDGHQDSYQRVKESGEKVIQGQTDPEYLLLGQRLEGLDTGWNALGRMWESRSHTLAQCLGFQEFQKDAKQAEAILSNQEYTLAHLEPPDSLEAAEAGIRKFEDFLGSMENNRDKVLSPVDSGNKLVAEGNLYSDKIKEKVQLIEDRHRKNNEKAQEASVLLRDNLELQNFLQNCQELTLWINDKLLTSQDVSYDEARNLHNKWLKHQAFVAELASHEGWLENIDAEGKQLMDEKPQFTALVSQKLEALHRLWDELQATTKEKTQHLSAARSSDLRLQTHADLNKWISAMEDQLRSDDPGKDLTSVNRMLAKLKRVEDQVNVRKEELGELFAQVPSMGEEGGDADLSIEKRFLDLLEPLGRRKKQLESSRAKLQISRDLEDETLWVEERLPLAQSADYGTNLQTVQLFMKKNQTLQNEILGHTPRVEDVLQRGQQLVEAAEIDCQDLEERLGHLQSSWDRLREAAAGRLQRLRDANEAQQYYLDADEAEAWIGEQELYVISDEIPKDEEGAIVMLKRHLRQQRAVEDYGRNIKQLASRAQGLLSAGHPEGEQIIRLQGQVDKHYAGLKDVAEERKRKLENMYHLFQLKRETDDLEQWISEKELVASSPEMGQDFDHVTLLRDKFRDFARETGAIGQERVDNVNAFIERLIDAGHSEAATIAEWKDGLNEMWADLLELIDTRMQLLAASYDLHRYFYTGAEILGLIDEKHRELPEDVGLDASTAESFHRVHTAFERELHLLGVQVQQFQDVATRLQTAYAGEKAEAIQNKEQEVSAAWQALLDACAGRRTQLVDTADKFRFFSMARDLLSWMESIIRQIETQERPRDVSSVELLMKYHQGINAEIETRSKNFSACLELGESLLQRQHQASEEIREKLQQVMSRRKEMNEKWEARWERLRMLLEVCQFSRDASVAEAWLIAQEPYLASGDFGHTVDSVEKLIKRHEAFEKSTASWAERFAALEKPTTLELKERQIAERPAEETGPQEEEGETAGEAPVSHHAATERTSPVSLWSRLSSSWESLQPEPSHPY", "assay_type": "binding"}, "[2]": {"biological_target": "T7, Self-association domain (reconstituted) (Homo sapiens, UniProt P02549+P11277)", "T7 sequence (P02549 1-158)": "T1 sequence (P02549 1-158)", "T7 sequence (P11277 1895-2137)": "T3 sequence (P11277 1895-2137)", "assay_type": "binding"}, "actin binding domain": {"biological_target": "actin binding domain (Homo sapiens, UniProt P11277)", "sequence (P11277 1-316)": "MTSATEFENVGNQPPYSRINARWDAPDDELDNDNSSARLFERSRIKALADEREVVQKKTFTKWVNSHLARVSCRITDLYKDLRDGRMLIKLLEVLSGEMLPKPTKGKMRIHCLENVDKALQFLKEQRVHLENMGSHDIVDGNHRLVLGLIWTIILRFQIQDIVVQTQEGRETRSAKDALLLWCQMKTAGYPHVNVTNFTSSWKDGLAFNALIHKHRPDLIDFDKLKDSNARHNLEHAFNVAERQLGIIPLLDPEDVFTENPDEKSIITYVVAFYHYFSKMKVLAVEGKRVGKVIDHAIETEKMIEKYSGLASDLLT"}}, "data": [{"smiles": "O=S(=O)(O)c1cccc2cccc(Nc3ccccc3)c12", "note": "[ANS, 1-anilinonaphthalene-8-sulfonic acid]", "values": [{"measurement": "Kd", "setting": "α-tetramerization domain", "value": "45.4 ± 3.1", "unit": "µM"}, {"measurement": "Kd", "setting": "SH3 domain", "value": "64 ± 2.7", "unit": "µM"}, {"measurement": "Kd", "setting": "β-tetramerization domain", "value": "48.2 ± 3.3", "unit": "µM"}, {"measurement": "Kd", "setting": "α-dimerization domain", "value": "51.5 ± 3.2", "unit": "µM"}, {"measurement": "Kd", "setting": "spectrin repeat domain", "value": "47.7 ± 2.9", "unit": "µM"}, {"measurement": "Kd", "setting": "ankyrin binding domain", "value": "40 ± 2.8", "unit": "µM"}, {"measurement": "Kd", "setting": "β-dimerization domain", "value": "37.2 ± 3.1", "unit": "µM"}, {"measurement": "Kd", "setting": "[1]", "value": "30.1 ± 2", "unit": "µM"}, {"measurement": "Kd", "setting": "[2]", "value": "38.9 ± 2.3", "unit": "µM"}, {"measurement": "Kd", "setting": "actin binding domain", "value": "64.3 ± 3.9", "unit": "µM"}]}]}
